This assay can be described thus: Binding to HIV1 Vpr by isothermal titration calorimetry. Also noted: species or system Human immunodeficiency virus. In general terms: Isothermal titration calorimetry measures the heat released or taken up as one component is titrated into another.

For orientation: Kd means the free concentration of one partner at which half of the binding sites on the other are occupied at equilibrium, for simple one-to-one binding.

Structures are written as SMILES.

The compound `C[C@H](CC(N)=O)N(C[C@@H](CCCCN)N(C[C@@H](CCCCN)N(C[C@@H](Cc1ccc(O)cc1)NC(=O)Cc1ccc([N+](=O)[O-])cc1)C(=O)CCc1ccccc1)C(=O)CCc1ccccc1)C(=O)CCc1ccccc1` came in with a Kd of 25 µM.
